Measured values: patent US11167007B2, “FOXM1 modulators and uses thereof” (City of Hope, priority 2016, dated 2021)

What was measured:
Assay type in all cases: cell-based, murine
FOXM1 = assay: Western blot of FOXM1 levels in GT1-7 CARY cells; settings: relative to p84 loading control, FIG. 3C
Description: Western Blot. Cell lysates was separated on a 6% SDS page gel and transferred to a nitrocellulose membrane. The membrane was blocked for one hour in 5% skim milk dissolved in TBS-T and probed with the following antibodies ([…]): FoxM1 (rabbit, GeneTex), AR: 441 (mouse, Santa Cruz Biotechnology), β-catenin (rabbit 9562, Cell Signaling Technology), p84 (mouse, GeneTex) and actin (mouse, Santa Cruz Biotechnology). Horse radish peroxidase linked secondary antibodies were used along with ECL reagents for visualization. Western blots were quantified using Quantity One analysis software (BioRad).
It has been previously reported that thiostrepton causes decreased levels of FOXM1. Hegde et al, Nat Chem, 3(9):725-31 (2011); Gartel, Front Oncol, 3:150 (2013). […] The nuclear association between FOXM1 and β-catenin increases the transcriptional activity of both factors. Zhang et al, Cancer Cell, 20(4):427-42 (2011). β-catenin is a key AR coactivator in a variety of cells. Yang, J Biol Chem, 277(13):11336-44 (2002); Truica et al, Cancer Res, 60(17):4709-13 (2000). The inventors believed that thiostrepton could inhibit AR activity by limiting access to nuclear β-catenin via FOXM1 depletion. […] As expected, control actin protein was observed primarily in cytoplasmic fraction.

AR [1] = assay: Androgen-responsive luciferase reporter assay in C2C12 cells; settings: treated overnight, FIG. 2A
Description: Luciferase Reporter Assay. Cells were transfected using Lipofectamine Plus (Invitrogen) with a normalization plasmid (pRL-SV40, Promega) and an androgen responsive plasmid (MMTV-luciferase or PSA-luciferase) as described in Jones et al, ACS Chem Biol, 3(7):412-8 (2008), and, where indicated, with an shRNA plasmid targeting FOXM1 (adapted for mouse FOXM1 sequence targeting) a scrambled control shRNA plasmid, or ARQ24 or ARQ65 plasmids. Christensen et al, PLoS One, 8(1):e54556 (2013). The following day, cells and drugs were distributed to 96-well plates. 24 hours later, luciferase activity was assessed by a dual luciferase assay kit (Promega) on the Tecan plate reader. Samples were run in quadruplicates and a Student's t test was performed to determine significance, where p<0.05 was considered significant.
In order to identify potential cell-type selective AR modulators, the FRET-based assay of AR conformation change was utilized. AR signaling is a complex process involving many steps in addition to ligand binding. One crucial step is the ligand-induced conformational change of AR, which brings the carboxy (C)- and amino (N)-termini of the receptor together. Full length AR with cyan fluorescent protein (CFP) or yellow fluorescent protein (YFP) fused to either end (CARY) produces a FRET signal upon AR conformation change (FIG. 1A). This produces an accurate and quantifiable read-out of AR activity. Jones et al, ACS Chem Biol, 3(7):412-8 (2008). Because the interest was in the potential of neuron selective AR inhibitors for treatment of SBMA, the initial screen was carried out in CARY-transfected GT1-7 cells, which are a mouse model of hypothalamic neurons. Liposits et al, Endocrinology, 129(3):1575-83 (1991). Cells were plated in 96 wells and treated with library compounds 24 hours prior to accessing conformational changes by FRET. […] Candidate hits were then further evaluated by dose response. […] In addition to FRET, AR transcriptional activity was also assessed in several cell lines by transfecting cells with a luciferase reporter driven by the human PSA promoter. […]

AR [2] = assay: Androgen-responsive luciferase reporter assay in GT1-7 cells; settings: GT1-7 cells, treated overnight, FIG. 2A
Procedure: Luciferase Reporter Assay. […] The following day, cells and drugs were distributed to 96-well plates. 24 hours later, luciferase activity was assessed by a dual luciferase assay kit (Promega) on the Tecan plate reader. Samples were run in quadruplicates and a Student's t test was performed to determine significance, where p<0.05 was considered significant.
In order to identify potential cell-type selective AR modulators, the FRET-based assay of AR conformation change was utilized. AR signaling is a complex process involving many steps in addition to ligand binding. One crucial step is the ligand-induced conformational change of AR, which brings the carboxy (C)- and amino (N)-termini of the receptor together. Full length AR with cyan fluorescent protein (CFP) or yellow fluorescent protein (YFP) fused to either end (CARY) produces a FRET signal upon AR conformation change (FIG. 1A). This produces an accurate and quantifiable read-out of AR activity. […] Cells were plated in 96 wells and treated with library compounds 24 hours prior to accessing conformational changes by FRET. […] Candidate hits were then further evaluated by dose response. […] In addition to FRET, AR transcriptional activity was also assessed in several cell lines by transfecting cells with a luciferase reporter driven by the human PSA promoter.

| SMILES | FOXM1 levels (Western blot) (FOXM1) | inhibition of AR transcriptional activity (luciferase) (AR [1]) | inhibition of AR transcriptional activity (luciferase) (AR [2]) |
| --- | --- | --- | --- |
| C[C@]12CCC(=O)C[C@@H]1CC[C@@H]1[C@@H]2CC[C@]2(C)[C@@H](O)CC[C@@H]12 [DHT, dihydrotestosterone] | increased |  |  |
| Nc1c(C(=O)Nc2ccc(F)cc2)sc2nc(-c3cccs3)cc(C(F)(F)F)c12 [FDI-6] |  | not C2C12 cells | inhibited AR activity |
